Measurements from paper PMC11931151, “Inhibition of carbohydrate digestive enzymes by a complementary essential oil blend: in silico and mixture design approaches” (Frontiers in Pharmacology, 2025).
In brackets after ≈: the same amount, converted by molar mass.

Biological target: T1, intestinal α-glucosidase
T1 construct: gene SI; called intestinal, sucrose as substrate (points to sucrase-isomaltase), but a commercial yeast enzyme cannot be excluded; docking model 2QMJ is human maltase-glucoamylase
Assay: sucrose hydrolysis, glucose oxidase-peroxidase, absorbance at […] nm
Type: biochemical
Settings: phosphate pH 7.5, 37 °C, 20 min pre-incubation, positive control

IC50: 59 ± 9 µg/mL (≈ 91.4 µM)
SMILES: C[C@H]1O[C@H](O[C@H]2[C@H](O)[C@@H](O)[C@@H](O[C@H]3[C@H](O)[C@@H](O)C(O)O[C@@H]3CO)O[C@@H]2CO)[C@H](O)[C@@H](O)[C@@H]1N[C@H]1C=C(CO)[C@@H](O)[C@H](O)[C@H]1O (stereo partly shown) [acarbose]
